# From patent US5883079A, “Method for inhibiting H. pylori infection in mammalian tissue” (Neose Technologies, Inc., priority 1998, dated 1999)
# Several values for one entry are separate records, joined by “and”; a condition that tells them apart may be missing. Equal entries are not always repeated. Entries after “also recorded” stand apart in the source; their conditions may differ.
# What was measured:
# [1] = test system: H. pylori binding to HuTu-80 cell monolayer; assay: H. pylori binding inhibition to HuTu-80 cell monolayers (microtiter, urease readout); assay type: cell-based, human (HuTu-80); H. pylori; conditions: for IC50: Homo sapiens, HuTu80; for activity in inhibiting binding of H. pylori cells, in vitro: in words
# Experimental: The cultures were maintained in Basal medium Eagle containing 10% fetal calf serum in T-75 flasks, at 37° C. and a 5% CO2 atmosphere. Cells were harvested by trypsin/EDTA release and plated on 96-well flat bottom microtiter plates. The microtiter plates were incubated for 2-3 days until the monolayers grew to confluence. Prior to binding inhibition tests, the monolayer was washed with Hanks Balanced Salt solution (HBSS) containing Ca^+2 and Mg^+2, 0.1% BSA, 50 mM HEPES, 0.01 phenol red or HBHPR.
# H. pylori bacteria isolates were obtained from B. Marshall (from the University of Virginia) and grown on sheep blood agar, collected at 48 h, washed and suspended in a binding buffer of HBSS+0.1% bovine serum albumin+50 mM HEPES buffer+0.01% phenol red or HBHPR.
# The same concentration of bacteria and test compound were combined for 10 minutes, then transferred onto the monolayer. Binding was allowed to occur for 20 min at room temperature under mild agitation. The unbound bacteria was washed away with 1 wash of HBHPR, then 2 washes of the same buffer without HEPES buffer (HBPR).
# The presence of bound bacteria is indicated by the presence of bacterial urease which generates NH3, which raises the pH and changes the color to purple, near at OD595.
# IC50 in mg/ml was determined for each compound tested. The test data is reported below in Table 1:
# IC50 S were determined using the HuTu-80 cell line monolayers.
# H. pylori [2] = assay: In vivo animal test: H. pylori colonization in gnotobiotic piglets; parameters: bacterial colonies, colony forming units/gram of gastric epithelium, Experiment A / bacterial colonies, colony forming units/gram of gastric epithelium, Experiment B / bacterial colonies, colony forming units/gram of gastric epithelium, mean ± SD: scale not given here
# Experimental: Gnotobiotic derived piglets (delivered by cesarean section and housed in a germ-free environment) were orally treated with 100 mg of 3'sialyl lactose in 5.0 ml of water.
# (§1) Six day old gnotobiotic piglets were orally treated with seven doses of 100 mg each of 3' sialyl lactose, at about 8 hour intervals. As a control, the piglets were administered water. The third administration of 3' sialyl lactose and control was accompanied with 2×10^9 live H. pylori. Two piglets were administered 3'sialyl lactose and 2 piglets were administered the control.
# as §1, with “Twenty one” for “Six”, “4×10^9” for “2×10^9”, “Four” for “Two”
# The piglets were evaluated by determining bacterial colonies in blood-agar as colony forming units/gram of gastric epithelium (CFU/g). Gastric epithelium homogenates were plated on agar in serial 1:10 dilutions and bacterial colonies were counted on the plates, with 20-200 colonies/plate after 5 days.
# Helicobacter pylori [3] = assay: Effectiveness at inhibiting Helicobacter pylori when treating mammals, compared with fetuin; parameters: species or system mammals; H. pylori; conditions: vs fetuin
# [4] = test system: H. pylori binding to an erythrocyte receptor; conditions: cited from earlier work; for hemagglutination inhibition (in words): vs NeuAc(2→6)-lactose / NeuAc(2→3)-lactose
# Helicobacter pylori [5] = conditions: in words; cited from earlier work
# H. pylori [6] = conditions: material treated with neuraminidase; cited from earlier work
# [7] = in words; cited from earlier work
# H. pylori [8] = conditions: in words; cited from earlier work
# Y-1 mouse adrenal cells = conditions: in words; cited from earlier work
molecule,measurement,setting,value
"CC(=O)N[C@H]1[C@H]([C@H](O)[C@H](O)CO)O[C@@](O[C@H]2[C@@H](O)[C@@H](CO)O[C@@H](O[C@H]3[C@H](O)[C@@H](O)C(O)O[C@@H]3CO)[C@@H]2O)(C(=O)O)C[C@@H]1O (stereo partly drawn) [3' sialyl lactose, N-acetylneuraminyl-α(2→3)-Gal β1→4 Glc]",IC50,[1],6 mM
same,"activity in inhibiting binding of H. pylori cells, in vitro",[1],surprisingly strongly inhibits H. pylori
same,"bacterial colonies, colony forming units/gram of gastric epithelium, mean ± SD",H. pylori [2]; Experiments A and B together,6.9 ± 5.9 CFU/g
same,H. pylori binding inhibition in mammals,"H. pylori [2]; in words, validated through in vivo mammalian test data",surprisingly effective inhibitor
same,"bacterial colonies, colony forming units/gram of gastric epithelium, Experiment A","H. pylori [2]; six day old piglets, oral, seven doses of 100 mg, 8 hour intervals, 2×10^9 live H. pylori, individual animals",5.44 CFU/g and 0 CFU/g
same,"bacterial colonies, colony forming units/gram of gastric epithelium, Experiment B","H. pylori [2]; twenty one day old piglets, oral, seven doses of 100 mg, 8 hour intervals, 4×10^9 live H. pylori, individual animals",4.46 CFU/g and 25.5 CFU/g and 3.71 CFU/g and 2.48 CFU/g
same,times more effective at inhibiting Helicobacter pylori than fetuin,Helicobacter pylori [3],more than 6.41 times
same,hemagglutination inhibition (in words),[4],preferentially inhibited
gangliotriaosylceramide,recognition by H. pylori,Helicobacter pylori [5],specifically recognizes
"CC(=O)N[C@H]1[C@H]([C@H](O)[C@H](O)CO)O[C@@](OC[C@H]2O[C@@H](O[C@H]3[C@H](O)[C@@H](O)C(O)O[C@@H]3CO)[C@H](O)[C@@H](O)[C@H]2O)(C(=O)O)C[C@@H]1O (stereo partly drawn) [6' sialyl lactose, N-acetylneuraminyl-α(2→6)-Gal β1→4 Glc, reference compound]",IC50,[1],> 10 mM
α2 -Macroglobulin: Sialoprotein which contains the NeuAc(2→3)Gal isomer of NeuAc-lactose,concentration needed to produce 100% HAI,[4]; hemagglutination inhibition,1.000 mg/mL
same,hemagglutination inhibition (in words),[4],"also inhibited H. pylori binding, but at higher concentrations"
N-acetylneuraminyllactose [reference compound],decrease in MFI upon neuraminidase treatment,H. pylori [6],16.8%
Colloidal bismuth subcitrate [Colloidal bismuth subcitrate (CBS)],effectiveness as a histamine H2 antagonist,[7],effective as a histamine H2 antagonist
same,eradication of H. pylori,H. pylori [8],ability to eradicate H. pylori
same,relapse rates after cessation of therapy,H. pylori [8],lower relapse rates
#3: fraction # 3 corresponds with pure fetuin,"IC50, Expt C","[1]; HuTu-80, fetuin fraction, Expt C",1300 µg/mL
gangliotetraosylceramide,recognition by H. pylori,Helicobacter pylori [5],specifically recognizes
asialofetuin: asialofetuin,decrease in MFI upon neuraminidase treatment,H. pylori [6],8.6%
fetuin: Sialoprotein which contains the NeuAc(2→3)Gal isomer of NeuAc-lactose,"activity in inhibiting binding of H. pylori cells, in vitro",[1],minimal activity
same,concentration needed to produce 100% HAI,[4]; hemagglutination inhibition,0.500 mg/mL
same,times as effective as bovine NeuAc-lactose,[4]; hemagglutination inhibition,0.156 times
same,times as effective as α2-Macroglobulin,[4]; hemagglutination inhibition,about 2 times
same,hemagglutination inhibition (in words),[4],"also inhibited H. pylori binding, but at higher concentrations"
same,adherence to Y-1 cells,Y-1 mouse adrenal cells,blocked
same,decrease in MFI upon neuraminidase treatment,H. pylori [6],29.8%
phosphatidylethanolamine,recognition by H. pylori,Helicobacter pylori [5],receptor; also recorded: specifically recognizes
"OC[C@H]1O[C@@H](O[C@H]2[C@H](O)[C@@H](O)C(O)O[C@@H]2CO)[C@H](O)[C@@H](O)[C@H]1O (stereo partly drawn) [lactose, reference compound]",IC50,[1],> 10 mM
"Glycophorin A: Sialoprotein which contains the NeuAc(2→3)Gal isomer of NeuAc-lactose (protein, UniProt P02724 20-150, looked up) Glycophorin-A: LSTTEVAMHTSTSSSVTKSYISSQTNDTHKRDTYAATPRAHEVSEISVRTVYPPEEETGERVQLAHHFSEPEITLIIFGVMAGVIGTILLISYGIRRLIKKSPSDVKPLPSPDTDVPLSSVEIENPETSDQ",concentration needed to produce 100% HAI,[4]; hemagglutination inhibition,0.250 mg/mL
same,hemagglutination inhibition (in words),[4],"also inhibited H. pylori binding, but at higher concentrations"
